Test results: US6737383B1, “Herbicidal oxadiazolidines” (priority 1999, dated 2004)

Legend:
bedstraw = experiment: Test B pre/postemergence bedstraw; type: in vivo, Galium aparine; conditions: Preemergence; for Bedstraw plant response rating: scale 0 to 10, 0 is no effect, 10 is complete control
Procedure, shortened: (§1)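 Response is a visual 0-to-10 score relative to untreated plants, where 0 means no effect and 10 means complete control, taken twelve to sixteen days after application. Treatments went onto soil at planting and onto foliage of 1- to 4-leaf plants, using a surfactant-containing non-phytotoxic solvent.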

blackgrass = experiment: Test B pre/postemergence blackgrass; type: in vivo, Alopecurus myosuroides
Procedure, shortened: as §1

surinam grass = experiment: Test B pre/postemergence surinam grass; type: in vivo, Brachiaria decumbens
Procedure, shortened: as §1

cocklebur = experiment: Test B pre/postemergence cocklebur; type: in vivo, Xanthium strumarium
Procedure, shortened: as §1

corn = experiment: Test B pre/postemergence corn; type: in vivo, Zea mays
Procedure, shortened: as §1

crabgrass = experiment: Test B pre/postemergence crabgrass; type: in vivo, Digitaria sanguinalis
Procedure, shortened: as §1

giant foxtail = experiment: Test B pre/postemergence giant foxtail; type: in vivo, Setaria faberii
Procedure, shortened: as §1

morningglory = experiment: Test B pre/postemergence morningglory; type: in vivo, Ipomoea hederacea
Procedure, shortened: as §1

pigweed = experiment: Test B pre/postemergence pigweed; type: in vivo, Amaranthus retroflexus
Procedure, shortened: as §1

rape = experiment: Test B pre/postemergence rape; type: in vivo, Brassica napus
Procedure, shortened: as §1

soybean = experiment: Test B pre/postemergence soybean; type: in vivo, Glycine max
Procedure, shortened: as §1

sugar beet = experiment: Test B pre/postemergence sugar beet; type: in vivo, Beta vulgaris
Procedure, shortened: as §1

velvetleaf = experiment: Test B pre/postemergence velvetleaf; type: in vivo, Abutilon theophrasti
Procedure, shortened: as §1

wheat = experiment: Test B pre/postemergence wheat; type: in vivo, Triticum aestivum
Procedure, shortened: as §1

wild oat = experiment: Test B pre/postemergence wild oat; type: in vivo, Avena fatua
Procedure, shortened: as §1

purple nutsedge = experiment: Test B pre/postemergence purple nutsedge; type: in vivo, Cyperus rotundus
Procedure, shortened: as §1

rice = experiment: Test B flood test rice; type: in vivo, Oryza sativa
Procedure, shortened: (§2)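 Plants were grown to the 2-leaf stage before treatment with test chemical, then held in a greenhouse for twelve to sixteen days. Injury was visually rated against untreated controls on a 0–10 scale, where 0 is no effect and 10 is complete control.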

smallflower flatsedge = experiment: Test B flood test smallflower flatsedge; type: in vivo, Cyperus difformis
Procedure, shortened: as §2

duck salad = experiment: Test B flood test duck salad; type: in vivo, Heteranthera limosa
Procedure, shortened: as §2

bamyardgrass = experiment: Test B flood test barnyardgrass; type: in vivo, Echinochloa crus-galli
Procedure, shortened: as §2

[1] = Postemergence, Rate 125 g/ha, scale 0 to 10, 0 is no effect, 10 is complete control
[2] = Postemergence, Rate 250 g/ha, scale 0 to 10
[3] = Postemergence, Rate 500 g/ha, scale 0 to 10, 0 is no effect, 10 is complete control
[4] = Preemergence, Rate 62 g/ha, scale of 0 to 10 where 0 is no effect and 10 is complete control
[5] = Preemergence, Rate 125 g/ha, scale 0 to 10, 0 is no effect, 10 is complete control
[6] = Preemergence, Rate 250 g/ha, scale 0 to 10, 0 is no effect, 10 is complete control
[7] = Preemergence, Rate 500 g/ha, scale of 0 to 10 where 0 is no effect and 10 is complete control
[8] = Rate 62 g/ha, Postemergence, scale 0 to 10 (0 no effect, 10 complete control)
[9] = Rate 62 g/ha, flood test species, Pre-emergence, visual evaluation after twelve to sixteen days
[10] = Rate 125 g/ha, under heading Pre-emergence, flood test species, visual evaluation after twelve to sixteen days
[11] = Rate 250 g/ha, Pre-emergence (flood test species), scale 0 to 10, 0 is no effect, 10 is complete control
[12] = Rate 500 g/ha, Pre-emergence section of Table B, 0 to 10 scale (0 no effect, 10 complete control)

SMILES: CC(C)N(C(=O)n1oc(=O)n(CCCNC(=O)CCl)c1=O)c1ccccc1 [Compound 493]
- Plant response rating, Bedstraw (bedstraw; Rate 62 g/ha, scale of 0 to 10 where 0 is no effect and 10 is complete control): 0
- Bedstraw plant response rating (bedstraw; Rate 125 g/ha): 0
- Bedstraw plant response rating (bedstraw; Rate 250 g/ha): 0
- Bedstraw plant response rating (bedstraw; Rate 500 g/ha): 0
- Blackgrass plant response rating (blackgrass; [1]): 0
- Blackgrass plant response rating (blackgrass; [2]): 0
- Plant response rating, Blackgrass (blackgrass; [3]): 0
- Plant response rating, Blackgrass (blackgrass; [4]): 0
- Blackgrass plant response rating (blackgrass; [5]): 0
- Blackgrass plant response rating (blackgrass; [6]): 0
- Blackgrass plant response rating (blackgrass; [7]): 0
- Blackgrass plant response rating (blackgrass; [8]): 0
- B. signalgrass plant response rating (surinam grass; [1]): 0
- B. signalgrass plant response rating (surinam grass; Postemergence, Rate 250 g/ha, scale 0 to 10, 0 no effect, 10 complete control): 0
- Plant response rating, B. signalgrass (surinam grass; [3]): 0
- Plant response rating, B. signalgrass (surinam grass; [4]): 0
- B. signalgrass plant response rating (surinam grass; [5]): 0
- B. signalgrass plant response rating (surinam grass; [6]): 0
- B. signalgrass plant response rating (surinam grass; Preemergence, Rate 500 g/ha, scale 0 to 10, 0 is no effect, 10 is complete control): 0
- B. signalgrass plant response rating (surinam grass; [8]): 0
- Cocklebur plant response rating (cocklebur; [1]): 0
- Cocklebur plant response rating (cocklebur; [2]): 0
- Plant response rating, Cocklebur (cocklebur; [3]): 0
- Plant response rating, Cocklebur (cocklebur; [4]): 0
- Cocklebur plant response rating (cocklebur; [5]): 0
- Cocklebur plant response rating (cocklebur; [6]): 0
- Cocklebur plant response rating (cocklebur; [7]): 0
- Cocklebur plant response rating (cocklebur; [8]): 0
- Corn plant response rating (corn; [1]): 0
- Corn plant response rating (corn; [2]): 0
- Plant response rating, Corn (corn; [3]): 0
- Plant response rating, Corn (corn; [4]): 0
- Corn plant response rating (corn; [5]): 0
- Corn plant response rating (corn; [7]): 0
- Corn plant response rating (corn; [8]): 0
- Crabgrass plant response rating (crabgrass; [1]): 0
- Crabgrass plant response rating (crabgrass; [2]): 0
- Plant response rating, Crabgrass (crabgrass; [3]): 4
- Plant response rating, Crabgrass (crabgrass; [4]): 0
- Crabgrass plant response rating (crabgrass; [5]): 0
- Crabgrass plant response rating (crabgrass; [7]): 2
- Crabgrass plant response rating (crabgrass; [8]): 0
- Giant foxtail plant response rating (giant foxtail; [1]): 0
- Plant response rating, Giant foxtail (giant foxtail; [3]): 0
- Plant response rating, Giant foxtail (giant foxtail; [4]): 3
- Giant foxtail plant response rating (giant foxtail; [5]): 3
- Giant foxtail plant response rating (giant foxtail; [7]): 10
- Giant foxtail plant response rating (giant foxtail; [8]): 0
- Morningglory plant response rating (morningglory; [1]): 0
- Plant response rating, Morningglory (morningglory; [3]): 0
- Plant response rating, Morningglory (morningglory; [4]): 0
- Morningglory plant response rating (morningglory; [5]): 0
- Morningglory plant response rating (morningglory; [7]): 0
- Morningglory plant response rating (morningglory; [8]): 0
- Redroot pigweed plant response rating (pigweed; [1]): 0
- Plant response rating, Redroot pigweed (pigweed; [3]): 0
- Plant response rating, Redroot pigweed (pigweed; [4]): 0
- Redroot pigweed plant response rating (pigweed; [5]): 0
- Redroot pigweed plant response rating (pigweed; [7]): 0
- Redroot pigweed plant response rating (pigweed; [8]): 0
- Rape plant response rating (rape; [1]): 0
- Plant response rating, Rape (rape; [3]): 0
- Plant response rating, Rape (rape; [4]): 0
- Rape plant response rating (rape; [5]): 0
- Rape plant response rating (rape; [7]): 0
- Rape plant response rating (rape; [8]): 0
- Soybean plant response rating (soybean; [1]): 0
- Plant response rating, Soybean (soybean; [3]): 2
- Plant response rating, Soybean (soybean; [4]): 0
- Soybean plant response rating (soybean; [5]): 0
- Soybean plant response rating (soybean; [7]): 0
- Sugarbeets plant response rating (sugar beet; [1]): 0
- Plant response rating, Sugarbeets (sugar beet; [3]): 0
- Plant response rating, Sugarbeets (sugar beet; [4]): 0
- Sugarbeets plant response rating (sugar beet; [5]): 0
- Sugarbeets plant response rating (sugar beet; [7]): 0
- Sugarbeets plant response rating (sugar beet; [8]): 0
- Velvetleaf plant response rating (velvetleaf; [1]): 0
- Plant response rating, Velvetleaf (velvetleaf; [3]): 0
- Plant response rating, Velvetleaf (velvetleaf; [4]): 0
- Velvetleaf plant response rating (velvetleaf; [5]): 0
- Velvetleaf plant response rating (velvetleaf; [7]): 0
- Velvetleaf plant response rating (velvetleaf; [8]): 0
- Wheat plant response rating (wheat; [1]): 0
- Plant response rating, Wheat (wheat; [3]): 0
- Plant response rating, Wheat (wheat; [4]): 0
- Wheat plant response rating (wheat; [5]): 0
- Wheat plant response rating (wheat; [7]): 0
- Wheat plant response rating (wheat; [8]): 0
- Wild oats plant response rating (wild oat; [1]): 0
- Plant response rating, Wild oats (wild oat; [3]): 0
- Plant response rating, Wild oats (wild oat; [4]): 0
- Wild oats plant response rating (wild oat; [5]): 0
- Wild oats plant response rating (wild oat; [7]): 0
- Wild oats plant response rating (wild oat; [8]): 0
- Nutsedge plant response rating (purple nutsedge; [1]): 0
- Plant response rating, Nutsedge (purple nutsedge; [3]): 0
- Nutsedge plant response rating (purple nutsedge; [5]): 0
- Nutsedge plant response rating (purple nutsedge; [7]): 0
- Nutsedge plant response rating (purple nutsedge; [8]): 0
- Plant response rating, Rice (0 to 10 scale, 0 is no effect, 10 is complete control) (rice; [9]): 0
- Rice plant response rating (0 to 10 scale, 0 is no effect, 10 is complete control) (rice; [10]): 0
- Rice plant response rating (rice; [11]): 0
- Rice plant response rating (rice; [12]): 0
- Plant response rating, S. Flatsedge (0 to 10 scale, 0 is no effect, 10 is complete control) (smallflower flatsedge; [9]): 0
- S. Flatsedge plant response rating (0 to 10 scale, 0 is no effect, 10 is complete control) (smallflower flatsedge; [10]): 0
- S. Flatsedge plant response rating (smallflower flatsedge; [11]): 0
- S. Flatsedge plant response rating (smallflower flatsedge; [12]): 0
- Plant response rating, Ducksalad (0 to 10 scale, 0 is no effect, 10 is complete control) (duck salad; [9]): 0
- Ducksalad plant response rating (0 to 10 scale, 0 is no effect, 10 is complete control) (duck salad; [10]): 0
- Ducksalad plant response rating (duck salad; [11]): 0
- Ducksalad plant response rating (duck salad; [12]): 0
- Plant response rating, Barnyardgrass (0 to 10 scale, 0 is no effect, 10 is complete control) (bamyardgrass; [9]): 0
- Barnyardgrass plant response rating (0 to 10 scale, 0 is no effect, 10 is complete control) (bamyardgrass; [10]): 0
- Barnyardgrass plant response rating (bamyardgrass; [11]): 0
- Barnyardgrass plant response rating (bamyardgrass; [12]): 0
